Residue numbers refer to the chain shown, from its start.
Columns and labels:
ZmEPSPS [1] = biological target: T1, ZmEPSPS (Zea mays, UniProt A0A1D6NVZ6); assay: EPSPS enzyme activity assay, glyphosate titration; assay type: biochemical
T1 sequence (A0A1D6NVZ6 63-506): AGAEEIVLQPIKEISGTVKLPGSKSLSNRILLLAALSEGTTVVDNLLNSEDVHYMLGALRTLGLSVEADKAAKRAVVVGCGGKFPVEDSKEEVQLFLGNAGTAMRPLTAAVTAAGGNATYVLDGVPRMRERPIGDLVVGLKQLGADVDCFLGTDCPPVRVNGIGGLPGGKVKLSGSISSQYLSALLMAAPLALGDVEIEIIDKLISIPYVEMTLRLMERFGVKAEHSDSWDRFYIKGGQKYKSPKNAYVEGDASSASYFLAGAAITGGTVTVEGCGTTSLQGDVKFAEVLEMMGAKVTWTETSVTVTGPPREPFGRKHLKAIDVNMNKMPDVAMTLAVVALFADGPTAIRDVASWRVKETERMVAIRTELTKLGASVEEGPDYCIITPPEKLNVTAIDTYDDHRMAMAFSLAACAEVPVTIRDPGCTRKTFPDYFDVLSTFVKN

ZmEPSPS [2] = biological target: T2, ZmEPSPS (Zea mays, UniProt A0A1D6NVZ6, P168A/T164I); assay: EPSPS enzyme activity assay, glyphosate titration; assay type: biochemical
T2 sequence (A0A1D6NVZ6 63-506 T164I/P168A): T1 sequence (A0A1D6NVZ6 63-506) with T102I, P106A

`O=C(O)CNCP(=O)(O)O` [glyphosate] gave an IC50 (ZmEPSPS [1]) of 0.0139 ± 0.0035 mM and an IC50 (ZmEPSPS [2]) of 19.5 ± 2.8 mM.

Source: publication PMC5901408 (Pest Management Science, 2017)
